SMILES strings stand for the structures.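 Five concentrations, 48 hours, 96-well plates. TGI: concentration producing complete growth inhibition.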

Among the test systems are OVCAR-3 ovarian; SF-268 CNS; SK-MEL-2 melanoma; ACHN renal; NCI-H23 lung; SF-295 CNS; CCRF-CEM leukemia; SF-539 CNS; MALME-3M melanoma; UACC-62 melanoma; OVCAR-4 ovarian; HCT-15 colon; U251 CNS; EKVX NSCLC; SW-620 colon; A498 renal.
Assay in all cases: inhibition of tumour cell growth, NCI panel, 48 h

For the molecule `CCOP12(OCC)NC(=O)OC1(C(F)(F)F)c1ccccc1O2` (stereo not drawn), the TGI in the experiment with OVCAR-3 ovarian, in the experiment with SF-268 CNS, with SK-MEL-2 melanoma, in the experiment on ACHN renal, in the experiment with NCI-H23 lung and with SF-295 CNS was > 100 µM in each case. Also, the TGI with CCRF-CEM leukemia, in the experiment with SF-539 CNS, with MALME-3M melanoma, in the experiment with UACC-62 melanoma, in the experiment with OVCAR-4 ovarian and in the experiment with HCT-15 colon was > 100 µM each time.

For the molecule `Cc1ccc(C(c2c(O)c3ccccc3n(-c3ccccc3)c2=O)c2c(O)c3ccccc3n(-c3ccccc3)c2=O)cc1`, the TGI in the experiment on U251 CNS, in the experiment on OVCAR-3 ovarian, with SF-268 CNS, in the experiment on EKVX NSCLC, in the experiment on SK-MEL-2 melanoma and in the experiment on ACHN renal was > 100 µM each time. Besides, the TGI in the experiment on NCI-H23 lung, in the experiment with SW-620 colon, in the experiment on CCRF-CEM leukemia, in the experiment with SF-539 CNS, in the experiment with MALME-3M melanoma and with OVCAR-4 ovarian was > 100 µM in each case. Moreover, the TGI with HCT-15 colon is > 100 µM.

On to `Cc1nc(N2N=C(c3ccc(Cl)cc3)CCC2=O)sc1[N+](=O)[O-]`, for which the TGI in the experiment with U251 CNS, in the experiment with OVCAR-3 ovarian, in the experiment on SF-268 CNS, in the experiment on EKVX NSCLC, with SK-MEL-2 melanoma and in the experiment with ACHN renal was > 100 µM in each case. Further, the TGI in the experiment with NCI-H23 lung, in the experiment with SF-295 CNS, in the experiment on SW-620 colon, in the experiment on CCRF-CEM leukemia, with SF-539 CNS and in the experiment with MALME-3M melanoma was > 100 µM throughout. For the same molecule, the TGI in the experiment on UACC-62 melanoma, in the experiment on OVCAR-4 ovarian and with HCT-15 colon was > 100 µM each time.

For `Clc1ccc(CCn2cncn2)cc1`, the TGI with U251 CNS, in the experiment on OVCAR-3 ovarian, in the experiment with SF-268 CNS, in the experiment with SK-MEL-2 melanoma, in the experiment with ACHN renal and with NCI-H23 lung was > 100 µM in each case. The TGI in the experiment with SF-295 CNS, in the experiment with SW-620 colon, with CCRF-CEM leukemia, in the experiment with SF-539 CNS, in the experiment on MALME-3M melanoma and in the experiment on UACC-62 melanoma was > 100 µM in each case. Further, the TGI in the experiment with OVCAR-4 ovarian, in the experiment on HCT-15 colon and with A498 renal was > 100 µM throughout.

For the molecule `CCOC(=O)C(C(=O)OCC)c1ccc([N+](=O)[O-])o1`, the TGI in the experiment on U251 CNS was found to be 36.8 µM; in the experiment on OVCAR-3 ovarian it was 15.8 µM; in the experiment with SF-268 CNS, 70.3 µM; with EKVX NSCLC, 35.4 µM; in the experiment on SK-MEL-2 melanoma, 34.1 µM; in the experiment with ACHN renal it was 22.6 µM. The TGI with NCI-H23 lung is 32.3 µM; in the experiment with SF-295 CNS, 36.8 µM; in the experiment with SW-620 colon, 9.94 µM; in the experiment on CCRF-CEM leukemia, > 22.8 µM; with SF-539 CNS it was 35.9 µM; in the experiment on MALME-3M melanoma, 17.6 µM. Further, the TGI came out at 35.9 µM in the experiment with UACC-62 melanoma, 32.4 µM in the experiment on OVCAR-4 ovarian and 33.6 µM in the experiment on HCT-15 colon.

Turning to `O=C1CC2(CCC3=C(O2)c2ccccc2NC(=O)C3)C(=O)c2ccccc2N1` (stereo not drawn), the TGI in the experiment on U251 CNS, in the experiment with OVCAR-3 ovarian, with SF-268 CNS, in the experiment with EKVX NSCLC, in the experiment with SK-MEL-2 melanoma and in the experiment with ACHN renal was > 100 µM in each case. Also, the TGI in the experiment with NCI-H23 lung, in the experiment with SF-295 CNS, in the experiment with SW-620 colon, in the experiment on CCRF-CEM leukemia, with SF-539 CNS and in the experiment with MALME-3M melanoma was > 100 µM each time. Also, the TGI with UACC-62 melanoma, in the experiment on OVCAR-4 ovarian and in the experiment with HCT-15 colon was > 100 µM each time.

For `O=C(c1nc2ccccc2[nH]c1=O)C(O)c1ccco1` (stereo not drawn), the TGI with U251 CNS, with OVCAR-3 ovarian, with SF-268 CNS, with EKVX NSCLC, with SK-MEL-2 melanoma and with ACHN renal was > 100 µM throughout. Moreover, the TGI in the experiment on NCI-H23 lung, with SF-295 CNS, in the experiment on SW-620 colon, in the experiment with CCRF-CEM leukemia, in the experiment on SF-539 CNS and in the experiment on MALME-3M melanoma was > 100 µM in each case. In addition, the TGI in the experiment with UACC-62 melanoma, with OVCAR-4 ovarian and in the experiment on HCT-15 colon was > 100 µM each time.

For `O=C1NC(=O)C(C(=O)C(=O)Nc2ccc(Cl)cc2Cl)C(=O)N1`, the TGI with U251 CNS, in the experiment with OVCAR-3 ovarian, with EKVX NSCLC, in the experiment with SK-MEL-2 melanoma, in the experiment on ACHN renal and with SF-295 CNS was > 100 µM throughout. The TGI in the experiment on SW-620 colon, in the experiment with CCRF-CEM leukemia, in the experiment on MALME-3M melanoma, with UACC-62 melanoma, with OVCAR-4 ovarian and with HCT-15 colon was > 100 µM in each case. For the same molecule, the TGI in the experiment with A498 renal was > 100 µM.

The values above are taken from PubChem BioAssay (NCI).
